According to ChEMBL document CHEMBL5550199, “Rational In Silico Design of Selective TMPRSS6 Peptidomimetic Inhibitors via Exploitation of the S2 Subpocket” (J Med Chem, 2024):
≈ marks a conversion by molar mass, not a printed value. Calls of active or inactive are those of the source. The rule behind the calls is not given here.

Experiments:
Homo sapiens [1] = organism: Homo sapiens; assay: Selectivity index, ratio of Ki for binding affinity to recombinant human Matriptase using Boc-QAR-AMC as substrate assessed as inhibition constant by fluorescence based analysis to Ki for binding affinity to recombinant human TMPRSS6 using Boc-QAR-AMC as substrate assessed as inhibition constant by fluorescence based analysis
[2] = biological target: T1, Suppressor of tumorigenicity 14 protein (Homo sapiens, UniProt Q9Y5Y6); assay: Binding affinity to recombinant human Matriptase using Boc-QAR-AMC as substrate assessed as inhibition constant by fluorescence based analysis
T1 sequence (Q9Y5Y6 whole entry): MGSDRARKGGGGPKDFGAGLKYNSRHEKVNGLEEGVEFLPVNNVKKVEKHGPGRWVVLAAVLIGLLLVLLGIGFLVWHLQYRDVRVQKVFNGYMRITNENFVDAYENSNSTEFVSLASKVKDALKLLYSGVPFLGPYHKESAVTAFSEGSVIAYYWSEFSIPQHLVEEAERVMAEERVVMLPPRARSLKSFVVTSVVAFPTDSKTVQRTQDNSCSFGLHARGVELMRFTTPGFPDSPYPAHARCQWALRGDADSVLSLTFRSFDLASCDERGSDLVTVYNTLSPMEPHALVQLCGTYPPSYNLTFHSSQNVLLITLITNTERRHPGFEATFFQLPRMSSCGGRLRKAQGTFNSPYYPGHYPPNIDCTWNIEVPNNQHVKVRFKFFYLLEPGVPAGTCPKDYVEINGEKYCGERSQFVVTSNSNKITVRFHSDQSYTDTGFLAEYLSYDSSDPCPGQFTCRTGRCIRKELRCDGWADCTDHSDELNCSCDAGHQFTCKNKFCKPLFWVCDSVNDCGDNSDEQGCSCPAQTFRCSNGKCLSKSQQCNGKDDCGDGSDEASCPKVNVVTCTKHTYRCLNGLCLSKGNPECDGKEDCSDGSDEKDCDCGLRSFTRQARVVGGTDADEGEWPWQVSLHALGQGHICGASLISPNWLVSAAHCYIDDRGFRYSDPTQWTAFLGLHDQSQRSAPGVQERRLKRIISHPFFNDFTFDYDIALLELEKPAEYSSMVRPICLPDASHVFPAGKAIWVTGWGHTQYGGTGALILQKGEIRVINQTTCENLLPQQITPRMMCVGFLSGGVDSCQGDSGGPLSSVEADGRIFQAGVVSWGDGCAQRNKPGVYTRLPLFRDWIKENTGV

[3] = biological target: T2, Transmembrane protease serine 6 (Homo sapiens, UniProt Q8IU80); assay: Binding affinity to recombinant human TMPRSS6 using Boc-QAR-AMC as substrate assessed as inhibition constant by fluorescence based analysis
T2 sequence (Q8IU80 whole entry): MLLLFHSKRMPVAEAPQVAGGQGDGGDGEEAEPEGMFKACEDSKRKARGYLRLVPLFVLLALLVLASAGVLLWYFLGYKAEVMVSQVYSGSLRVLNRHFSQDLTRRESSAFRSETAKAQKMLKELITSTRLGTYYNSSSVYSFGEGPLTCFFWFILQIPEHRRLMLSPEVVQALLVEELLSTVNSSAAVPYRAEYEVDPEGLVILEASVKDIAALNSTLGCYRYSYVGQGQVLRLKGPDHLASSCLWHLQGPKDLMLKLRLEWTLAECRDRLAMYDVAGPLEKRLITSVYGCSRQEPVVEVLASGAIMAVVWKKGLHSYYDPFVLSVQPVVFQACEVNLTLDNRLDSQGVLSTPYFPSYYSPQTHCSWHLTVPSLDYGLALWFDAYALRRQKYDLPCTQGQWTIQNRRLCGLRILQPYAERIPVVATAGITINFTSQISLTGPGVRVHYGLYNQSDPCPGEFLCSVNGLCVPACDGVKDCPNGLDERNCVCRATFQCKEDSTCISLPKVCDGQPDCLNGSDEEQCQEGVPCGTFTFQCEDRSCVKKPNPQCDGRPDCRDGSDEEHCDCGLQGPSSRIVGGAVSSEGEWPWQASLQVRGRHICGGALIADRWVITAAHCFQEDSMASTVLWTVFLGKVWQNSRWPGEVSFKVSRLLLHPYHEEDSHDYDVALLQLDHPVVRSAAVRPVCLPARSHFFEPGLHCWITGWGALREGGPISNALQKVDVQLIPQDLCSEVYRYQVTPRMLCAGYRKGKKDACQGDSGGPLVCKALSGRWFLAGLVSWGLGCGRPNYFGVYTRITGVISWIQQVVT

[4] = biological target: T3, Suppressor of tumorigenicity 14 protein (Homo sapiens) (UniProt Q9Y5Y6); assay: Inhibition of recombinant human Matriptase at 100 nM by Michaelis-Menten analysis relative to control
T3 sequence (whole entry): T1 sequence (Q9Y5Y6 whole entry)

[5] = biological target: T4, Transmembrane protease serine 6 (Homo sapiens) (UniProt Q8IU80); assay: Inhibition of recombinant human TMPRSS6 at 100 nM by Michaelis-Menten analysis relative to control
T4 sequence (whole entry): T2 sequence (Q8IU80 whole entry)

Furin = Furin (Homo sapiens, UniProt P09958); assay: Inhibition of recombinant human furin using Boc-RVRR-AMC as substrate assessed as inhibition constant by fluorescence based analysis
Sequence of Furin (P09958 whole entry): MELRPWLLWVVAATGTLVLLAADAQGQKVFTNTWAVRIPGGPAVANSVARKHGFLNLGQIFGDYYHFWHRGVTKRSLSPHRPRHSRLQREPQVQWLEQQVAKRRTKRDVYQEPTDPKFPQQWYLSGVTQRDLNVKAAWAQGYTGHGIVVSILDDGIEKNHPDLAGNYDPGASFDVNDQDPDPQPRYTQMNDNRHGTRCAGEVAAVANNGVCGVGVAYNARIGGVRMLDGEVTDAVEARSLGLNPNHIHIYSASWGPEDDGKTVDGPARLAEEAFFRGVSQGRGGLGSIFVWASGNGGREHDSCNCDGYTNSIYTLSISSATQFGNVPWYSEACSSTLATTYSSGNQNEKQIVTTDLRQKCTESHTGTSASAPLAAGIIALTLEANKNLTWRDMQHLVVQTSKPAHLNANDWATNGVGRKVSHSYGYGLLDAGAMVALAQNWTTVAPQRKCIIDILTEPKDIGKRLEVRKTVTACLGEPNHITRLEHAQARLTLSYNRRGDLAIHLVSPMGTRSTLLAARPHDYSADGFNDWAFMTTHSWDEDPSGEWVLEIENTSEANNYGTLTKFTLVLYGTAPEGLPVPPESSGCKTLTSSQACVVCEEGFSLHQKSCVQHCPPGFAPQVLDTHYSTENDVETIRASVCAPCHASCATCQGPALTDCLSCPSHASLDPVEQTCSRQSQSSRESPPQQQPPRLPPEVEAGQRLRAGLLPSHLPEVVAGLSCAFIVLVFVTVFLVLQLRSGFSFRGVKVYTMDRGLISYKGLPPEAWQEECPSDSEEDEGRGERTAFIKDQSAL

[6] = biological target: T1, Suppressor of tumorigenicity 14 protein; assay: Mixed inhibition of recombinant human Matriptase using Boc-QAR-AMC as substrate assessed as inhibition constant by fluorescence based analysis
Prothrombin = Prothrombin (Homo sapiens, UniProt P00734); assay: Inhibition of recombinant human thrombin using Boc-QAR-AMC as substrate assessed as inhibition constant by fluorescence based analysis
[7] = Metabolic stability in Sprague-Dawley rat microsome assessed as half life measured for 120 mins in presence of NADPH by UPLC-MS analysis; type: ADME; settings: microsomes, 2 h
[8] = biological target: T1, Suppressor of tumorigenicity 14 protein; assay: Inhibition of human Matriptase transfected in HEK293SL cells using Boc-QAR-AMC as substrate measured for 24 hrs; type: cell-based
[9] = Cytotoxicity against HEK cells assessed as reduction in cell viability measured for 24 hrs by celltiter-glo 2.0 assay; type: toxicity, cell-based; settings: human
[10] = Metabolic stability in Sprague-Dawley rat microsome assessed as intrinsic clearance measured for 120 mins in presence of NADPH by UPLC-MS analysis; type: ADME; settings: microsomes, 2 h
[11] = Apparent Permeability of compound in PBS buffer at pH 7.4 incubated for 17 hrs by PAMPA assay; type: ADME; settings: pH 7.4, 17 h
Coagulation factor X = Coagulation factor X (Homo sapiens, UniProt P00742); assay: Inhibition of recombinant human FXA using Boc-QAR-AMC as substrate assessed as inhibition constant by fluorescence based analysis
Sequence of Coagulation factor X (P00742 41-179 limits assumed): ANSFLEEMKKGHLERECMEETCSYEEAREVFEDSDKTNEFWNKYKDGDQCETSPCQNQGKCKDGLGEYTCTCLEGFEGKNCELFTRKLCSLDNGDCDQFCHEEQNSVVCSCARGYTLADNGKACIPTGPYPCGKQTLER
Sequence of Coagulation factor X (P00742 235-488 limits assumed): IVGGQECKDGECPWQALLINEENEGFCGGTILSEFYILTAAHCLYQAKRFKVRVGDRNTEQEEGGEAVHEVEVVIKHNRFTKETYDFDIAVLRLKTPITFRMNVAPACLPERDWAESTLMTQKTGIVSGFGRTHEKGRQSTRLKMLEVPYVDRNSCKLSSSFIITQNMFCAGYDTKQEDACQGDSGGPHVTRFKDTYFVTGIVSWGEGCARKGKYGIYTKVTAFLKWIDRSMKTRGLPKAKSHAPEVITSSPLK

[12] = Stability in Sprague-Dawley rat plasma assessed as parent compound remaining at 24 hrs by UPLC-MS analysis; type: ADME, cell-free
Homo sapiens [13] = organism: Homo sapiens; assay: Selectivity index, ratio of Ki for mixed inhibition of recombinant human Matriptase using Boc-QAR-AMC as substrate assessed as inhibition constant by fluorescence based analysis to Ki for competitive tight binding inhibition of recombinant human TMPRSS6 using Boc-QAR-AMC as substrate assessed as inhibition constant by fluorescence based analysis
[14] = biological target: T2, Transmembrane protease serine 6; assay: Inhibition of human TMPRSS6 transfected in HEK293SL cells using Boc-QAR-AMC as substrate measured for 24 hrs; type: cell-based
[15] = biological target: T2, Transmembrane protease serine 6; assay: Competitive tight binding inhibition of recombinant human TMPRSS6 using Boc-QAR-AMC as substrate assessed as inhibition constant by fluorescence based analysis
[16] = Solubility of compound in PBS at pH 7.4 measured for 90 mins by UPLC analysis; type: physicochemical; settings: buffer, pH 7.4, 1.5 h
Homo sapiens [17] = organism: Homo sapiens; assay: Selectivity index, ratio of IC50 for inhibition of human Matriptase transfected in HEK293SL cells using Boc-QAR-AMC as substrate to IC50 for inhibition of human TMPRSS6 transfected in HEK293SL cells using Boc-QAR-AMC as substrate; type: cell-based

Row | Ratio Ki (Homo sapiens [1]) | Ki [2] [nM] | Ki [3] [nM] | Structure (SMILES) | further results
1 | 3.3 | 5 | 1.5 | CC(C)C[C@H](NC(=O)[C@H](Cc1cscn1)NC(=O)CCc1ccccc1)C(=O)N[C@@H](CCCNC(=N)N)C(=O)c1nc2ccccc2s1 | 
2 | 6.7 | 53 | 7.9 | N=C(N)NCCC[C@H](NC(=O)[C@H](Cc1ccc2ccccc2c1)NC(=O)[C@H](Cc1cscn1)NC(=O)CCc1ccccc1)C(=O)c1nc2ccccc2s1 | 
3 | 4.8 | 26.8 | 5.6 | N=C(N)NCCC[C@H](NC(=O)[C@H](Cc1ccc(OCc2ccccc2)cc1)NC(=O)[C@H](Cc1cscn1)NC(=O)CCc1ccccc1)C(=O)c1nc2ccccc2s1 | 
4 | 2.9 | 4.1 | 1.4 | N=C(N)NCCC[C@H](NC(=O)[C@H](Cc1ccccc1)NC(=O)[C@H](Cc1cscn1)NC(=O)CCc1ccccc1)C(=O)c1nc2ccccc2s1 | 
5 | 12 | 45.3 | 3.7 | N=C(N)NCCC[C@H](NC(=O)[C@H](Cc1cccc2ccccc12)NC(=O)[C@H](Cc1cscn1)NC(=O)CCc1ccccc1)C(=O)c1nc2ccccc2s1 | Activity [9]: Non-Toxic
6 | 1.5 | 3.3 | 2.2 | N=C(N)NCCC[C@H](NC(=O)[C@H](CCc1ccccc1)NC(=O)[C@H](Cc1cscn1)NC(=O)CCc1ccccc1)C(=O)c1nc2ccccc2s1 | 
7 | 2.6 | 33.6 | 12.5 | N=C(N)NCCC[C@H](NC(=O)[C@@H](NC(=O)[C@H](Cc1cscn1)NC(=O)CCc1ccccc1)c1ccccc1)C(=O)c1nc2ccccc2s1 | 

Further lines, the compound ahead of its results:

Row | Structure (SMILES) | Ratio Ki (Homo sapiens [1]) | Ki [2] [nM] | Ki [3] [nM] | further results
8 | CC[C@@H](C)[C@H](NC(=O)[C@H](Cc1cscn1)NC(=O)CCc1ccccc1)C(=O)N[C@@H](CCCNC(=N)N)C(=O)c1nc2ccccc2s1 | 6.3 | 8.8 | 1.4 | 
9 | CC[C@H](NC(=O)[C@H](Cc1cscn1)NC(=O)CCc1ccccc1)C(=O)N[C@@H](CCCNC(=N)N)C(=O)c1nc2ccccc2s1 |  |  |  | inhibition [4]: 20%; inhibition [5]: 20%
10 | CC[C@H](C)[C@H](NC(=O)[C@H](Cc1cscn1)NC(=O)CCc1ccccc1)C(=O)N[C@@H](CCCNC(=N)N)C(=O)c1nc2ccccc2s1 | 9.4 | 11.3 | 1.2 | 
11 | N=C(N)NCCC[C@H](NC(=O)[C@@H](NC(=O)[C@H](Cc1cscn1)NC(=O)CCc1ccccc1)C1CCCCC1)C(=O)c1nc2ccccc2s1 | 29 | 99.2 | 3.4 | Ki (Furin): > 10000 nM; Ki [6]: 100 nM; Ki (Prothrombin): 120 nM; t1/2 [7]: > 2 h; IC50 [8]: 352 nM; Activity [9]: Non-Toxic; CLH [10]: 1.12 µL/min/mg; Papp [11]: 0.017 10^-6 cm/s; Ki (Coagulation factor X): > 10000 nM; Stability [12]: 65%; Ratio Ki (Homo sapiens [13]): 19; IC50 [14]: 22 nM; Ki [15]: 5.3 nM; solubility [16]: 158 µM (≈ 113 µg/mL); Ratio IC50 (Homo sapiens [17]): 16
12 | N=C(N)NCCC[C@H](NC(=O)[C@H](Cc1ccc(C(=O)c2ccccc2)cc1)NC(=O)[C@H](Cc1cscn1)NC(=O)CCc1ccccc1)C(=O)c1nc2ccccc2s1 |  |  |  | inhibition [4]: inactive; inhibition [5]: inactive
13 | CC(C)(C)C[C@H](NC(=O)[C@H](Cc1cscn1)NC(=O)CCc1ccccc1)C(=O)N[C@@H](CCCNC(=N)N)C(=O)c1nc2ccccc2s1 | 11 | 50.8 | 4.6 | 
14 | N=C(N)NCCC[C@H](NC(=O)[C@H](CC12CC3CC(CC(C3)C1)C2)NC(=O)[C@H](Cc1cscn1)NC(=O)CCc1ccccc1)C(=O)c1nc2ccccc2s1 |  |  |  | inhibition [4]: inactive; inhibition [5]: inactive
15 | N=C(N)NCCC[C@H](NC(=O)[C@H](CC1CCCCC1)NC(=O)[C@H](Cc1cscn1)NC(=O)CCc1ccccc1)C(=O)c1nc2ccccc2s1 | 2.3 | 9.1 | 3.9 | 
16 | CCCC[C@H](NC(=O)[C@H](Cc1cscn1)NC(=O)CCc1ccccc1)C(=O)N[C@@H](CCCNC(=N)N)C(=O)c1nc2ccccc2s1 |  |  |  | inhibition [4]: 20%; inhibition [5]: 20%
17 | N=C(N)NCCC[C@H](NC(=O)[C@H](CCC1CCCCC1)NC(=O)[C@H](Cc1cscn1)NC(=O)CCc1ccccc1)C(=O)c1nc2ccccc2s1 | 1.5 | 12.3 | 8.3 | 
18 | CCC[C@H](NC(=O)[C@H](Cc1cscn1)NC(=O)CCc1ccccc1)C(=O)N[C@@H](CCCNC(=N)N)C(=O)c1nc2ccccc2s1 |  |  |  | inhibition [4]: 20%; inhibition [5]: 20%
